The values below come from PubChem BioAssay (NCI).

Among the test systems are A549 NSCLC; OVCAR-3 ovarian; OVCAR-4 ovarian; HOP-62 NSCLC; SK-MEL-2 melanoma; MDA-MB-231 breast; U251 CNS; SK-OV-3 ovarian; HT29 colon; CAKI-1 renal; UACC-62 melanoma; TK-10 renal; NCI-H460 lung; A498 renal; K-562 leukemia.
Common to all, as to assay: DTP human tumour cell line panel, 48 h

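Dose response: 5 concentrations. Exposure: 48 h. Format: 96-well plates. Endpoint: linear interpolation; highest concentration if not reached. TGI denotes the concentration required for complete inhibition of growth.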

The TGI is the concentration giving total growth inhibition. Consider `O=C1/C(=C/c2ccc(O)c(O)c2)CC/C1=C\c1ccc(O)c(O)c1`, for which the TGI with A549 NSCLC was above 79.9 µM; with OVCAR-3 ovarian, 32 µM; with OVCAR-4 ovarian it was above 57.5 µM; with HOP-62 NSCLC, 39 µM; in the test with SK-MEL-2 melanoma, above 72.7 µM; in the test on MDA-MB-231 breast it was above 100 µM. Besides, the TGI was 27.4 µM in the test on U251 CNS; above 60.2 µM in the test on SK-OV-3 ovarian; above 100 µM in the test with HT29 colon; above 57.7 µM in the test with CAKI-1 renal; 26 µM in the test on UACC-62 melanoma; above 100 µM in the test on TK-10 renal. Besides, the TGI is above 100 µM in the test with NCI-H460 lung, 63.2 µM in the test with A498 renal and 27.7 µM in the test on K-562 leukemia.
For the compound `CC(C)(C)[Si](C)(C)OCC1OC(n2ccc(=O)[nH]c2=O)C(O[Si](C)(C)C(C)(C)C)[C@]12O[C@@H]2CO` (stereo partly drawn), the TGI with A549 NSCLC amounted to 26.6 µM; in the test with OVCAR-3 ovarian, 28.4 µM; with OVCAR-4 ovarian it was 47.4 µM; in the test on HOP-62 NSCLC it was 30.2 µM; with SK-MEL-2 melanoma, 28.6 µM; with MDA-MB-231 breast it was 39.6 µM. The TGI in the test on U251 CNS is 42.6 µM; in the test with SK-OV-3 ovarian it was 30.5 µM; in the test with HT29 colon it was 23.8 µM; with CAKI-1 renal, 38.7 µM; with UACC-62 melanoma it was 36.8 µM; in the test with TK-10 renal it was 31 µM. For the same compound, the results for the total growth inhibition concentration (TGI) in the test on NCI-H460 lung, in the test with A498 renal and in the test with K-562 leukemia were 35.1 µM, 38.7 µM and above 100 µM, respectively.
Regarding `O=C1CC2CC(CC3(CO3)C2)C1F` (stereo not drawn), the TGI in the test with A549 NSCLC, in the test on OVCAR-4 ovarian, in the test on HOP-62 NSCLC, in the test with SK-MEL-2 melanoma, in the test with MDA-MB-231 breast and in the test with U251 CNS was above 100 µM throughout. The TGI with SK-OV-3 ovarian, in the test with HT29 colon, in the test on CAKI-1 renal, in the test on UACC-62 melanoma, with TK-10 renal and in the test on NCI-H460 lung was above 100 µM throughout. Moreover, the TGI in the test with A498 renal and in the test with K-562 leukemia was above 100 µM each time.
Consider `C(#CC1(Nc2ccccc2)CCN(Cc2ccccc2)CC1)C1(Nc2ccccc2)CCN(Cc2ccccc2)CC1`, for which the TGI in the test on A549 NSCLC was above 56.2 µM; in the test on OVCAR-3 ovarian, above 97.1 µM; with OVCAR-4 ovarian, 53.7 µM; in the test with HOP-62 NSCLC it was 40.7 µM; in the test on SK-MEL-2 melanoma, 20.1 µM; with MDA-MB-231 breast, 42.8 µM. In addition, the TGI is 43.6 µM in the test with U251 CNS; 13.1 µM in the test on SK-OV-3 ovarian; 39.4 µM in the test on HT29 colon; 44.5 µM in the test on CAKI-1 renal; 21.4 µM with UACC-62 melanoma; 39.4 µM in the test with TK-10 renal. The TGI in the test with NCI-H460 lung was above 46.4 µM; with A498 renal, above 46.4 µM; in the test on K-562 leukemia, 16.1 µM.
Turning to `COc1cc(CNc2c3ccccc3nc3ccccc23)cc(OC)c1OC`, the TGI in the test with A549 NSCLC was found to be 12.7 µM; with OVCAR-3 ovarian, 30.2 µM; in the test on OVCAR-4 ovarian, 20.3 µM; with HOP-62 NSCLC, 11.7 µM; with SK-MEL-2 melanoma, 5.66 µM; in the test on MDA-MB-231 breast it was 23.6 µM. In addition, the TGI in the test with U251 CNS is 19.5 µM; with SK-OV-3 ovarian it was 28.4 µM; in the test with HT29 colon, 14.3 µM; in the test with CAKI-1 renal, 14.1 µM; in the test on UACC-62 melanoma, 7.74 µM; in the test on TK-10 renal, 37.5 µM. The results for the TGI in the test with NCI-H460 lung, in the test with A498 renal and with K-562 leukemia were 8.18 µM, 7.71 µM and 2 µM, respectively.
Take `CCCC(=O)OC[n+]1ccc(-c2c(COC(=O)NC(C)C)c(COC(=O)NC(C)C)c3n2CCC3)cc1`: the concentration for total growth inhibition (TGI) in the test with A549 NSCLC, with OVCAR-3 ovarian, in the test on OVCAR-4 ovarian, in the test with HOP-62 NSCLC, in the test with SK-MEL-2 melanoma and in the test on MDA-MB-231 breast was above 100 µM in each case. Moreover, the TGI in the test with U251 CNS, with SK-OV-3 ovarian, with HT29 colon, in the test with CAKI-1 renal, in the test with UACC-62 melanoma and in the test with TK-10 renal was above 100 µM throughout. The concentration for total growth inhibition (TGI) with NCI-H460 lung, in the test with A498 renal and with K-562 leukemia was above 100 µM each time.
As to `O=C(Nc1cccc(C(=O)NCCCO)c1)/C(=C/c1ccccc1)NC(=O)c1ccccc1`, the TGI in the test on A549 NSCLC, in the test on OVCAR-3 ovarian, with OVCAR-4 ovarian, in the test on HOP-62 NSCLC, in the test on SK-MEL-2 melanoma and in the test with MDA-MB-231 breast was above 100 µM in each case. In addition, the TGI in the test with U251 CNS, in the test with SK-OV-3 ovarian, with HT29 colon, with CAKI-1 renal, in the test with UACC-62 melanoma and with TK-10 renal was above 100 µM each time. Moreover, the TGI in the test on NCI-H460 lung, in the test with A498 renal and in the test with K-562 leukemia was above 100 µM each time.
In the case of `CN(C)c1ccc(/C=C(\NC(=O)c2ccccc2)C(=O)Nc2cccc(C(=O)NCCCO)c2)cc1`, the TGI in the test on A549 NSCLC, in the test on OVCAR-3 ovarian, with OVCAR-4 ovarian, in the test on HOP-62 NSCLC, in the test on SK-MEL-2 melanoma and in the test on MDA-MB-231 breast was above 100 µM throughout. The TGI in the test on U251 CNS, with SK-OV-3 ovarian, in the test on HT29 colon, with CAKI-1 renal, in the test with UACC-62 melanoma and in the test on TK-10 renal was above 100 µM each time. Moreover, the TGI in the test on NCI-H460 lung, with A498 renal and in the test with K-562 leukemia was above 100 µM each time.
Take `CN1CC2=C(NC(=S)NC2c2ccccc2Cl)/C(=C/c2ccccc2Cl)C1` (stereo not drawn): the concentration for total growth inhibition (TGI) in the test with A549 NSCLC was above 100 µM; with OVCAR-3 ovarian it was above 100 µM; in the test on OVCAR-4 ovarian, 76.7 µM; in the test on HOP-62 NSCLC it was above 100 µM; in the test on SK-MEL-2 melanoma it was above 100 µM; in the test on MDA-MB-231 breast, above 100 µM. The TGI in the test on U251 CNS, with SK-OV-3 ovarian, in the test with HT29 colon, with CAKI-1 renal, in the test on UACC-62 melanoma and in the test with TK-10 renal was above 100 µM each time. The TGI in the test with NCI-H460 lung, in the test on A498 renal and in the test on K-562 leukemia was above 100 µM each time.
Regarding `CC(=O)NC1COC(COC(=O)CCCCCCCCCCNC(=O)c2ccc([N+](=O)[O-])c3c(=O)c4ccccc4[nH]c23)C(O)C1OC(C)C(=O)NC(C(=O)NC(CCC(N)=O)C(=O)OCc1ccccc1)C(C)C` (stereo not drawn), the concentration for total growth inhibition (TGI) is 71.9 µM in the test with A549 NSCLC; 9.57 µM with OVCAR-3 ovarian; 30.3 µM in the test with OVCAR-4 ovarian; 24.4 µM in the test on HOP-62 NSCLC; 28.7 µM in the test on SK-MEL-2 melanoma; above 100 µM with MDA-MB-231 breast. Also, the TGI in the test on U251 CNS is 27.9 µM; with SK-OV-3 ovarian, 78.8 µM; in the test with HT29 colon it was 22.2 µM; in the test on CAKI-1 renal, 23.4 µM; in the test with UACC-62 melanoma it was 58.9 µM; in the test on TK-10 renal, 54.4 µM. Also, the results for the TGI with NCI-H460 lung, in the test with A498 renal and in the test with K-562 leukemia were 39.7 µM, 47.7 µM and 54.2 µM, respectively.
Turning to `CN1CCN(Cc2nc3c(s2)CCc2sccc2-3)CC1`, the TGI with A549 NSCLC, with OVCAR-3 ovarian, in the test with OVCAR-4 ovarian, with HOP-62 NSCLC, with SK-MEL-2 melanoma and in the test on MDA-MB-231 breast was above 100 µM in each case. Besides, the TGI in the test on U251 CNS is above 100 µM; with SK-OV-3 ovarian it was above 100 µM; with HT29 colon, above 100 µM; in the test with CAKI-1 renal, above 100 µM; in the test with UACC-62 melanoma it was 57 µM; with TK-10 renal, above 100 µM. The values for the TGI with NCI-H460 lung, in the test with A498 renal and in the test on K-562 leukemia were above 100 µM, 83.4 µM and above 100 µM, respectively.
For the compound `Cc1cc2c(cc1Cl)SC(NNC1=NCCN1)=NS2(=O)=O`, the TGI in the test on A549 NSCLC, in the test with OVCAR-3 ovarian, with OVCAR-4 ovarian, in the test on HOP-62 NSCLC, in the test with SK-MEL-2 melanoma and in the test on MDA-MB-231 breast was above 10 µM in each case. Also, the TGI in the test with U251 CNS, in the test with SK-OV-3 ovarian, in the test with HT29 colon, in the test with CAKI-1 renal, in the test on UACC-62 melanoma and in the test with TK-10 renal was above 10 µM in each case. The TGI with NCI-H460 lung, in the test on A498 renal and with K-562 leukemia was above 10 µM throughout.
With `NC(=O)CCC(NC(=O)c1c2ccccc2nc2ccccc12)C(=O)O` (stereo not drawn), the TGI with A549 NSCLC, in the test with OVCAR-3 ovarian, with OVCAR-4 ovarian, with HOP-62 NSCLC, in the test with SK-MEL-2 melanoma and in the test with MDA-MB-231 breast was above 100 µM throughout. Also, the TGI in the test with U251 CNS, with SK-OV-3 ovarian, in the test with HT29 colon, in the test with CAKI-1 renal, in the test with UACC-62 melanoma and in the test on TK-10 renal was above 100 µM in each case. Besides, the TGI in the test with NCI-H460 lung, in the test with A498 renal and in the test with K-562 leukemia was above 100 µM each time.
`O=C1[C@@H](O)[C@@H]2CCCC[C@@]23CCCN13`: the TGI in the test with A549 NSCLC, in the test with OVCAR-4 ovarian, with HOP-62 NSCLC, in the test with SK-MEL-2 melanoma, in the test on MDA-MB-231 breast and in the test with U251 CNS was above 100 µM each time. In addition, the TGI with SK-OV-3 ovarian, in the test with HT29 colon, in the test with CAKI-1 renal, in the test with UACC-62 melanoma, with TK-10 renal and in the test on NCI-H460 lung was above 100 µM in each case. Also, the TGI in the test with A498 renal and with K-562 leukemia was above 100 µM in each case.
